Laboratory results published in US20220135591A1, “HETEROCYCLIC COMPOUNDS AS INHIBITORS OF MONOACYLGLYCEROL LIPASE (MAGL)” (Hoffmann-La Roche Inc., priority 2019, published 2022).
One block for each compound: values may come before it.

Biological target: T1, MAGL (Homo sapiens, UniProt Q99685)
T1 sequence (Q99685 1-303): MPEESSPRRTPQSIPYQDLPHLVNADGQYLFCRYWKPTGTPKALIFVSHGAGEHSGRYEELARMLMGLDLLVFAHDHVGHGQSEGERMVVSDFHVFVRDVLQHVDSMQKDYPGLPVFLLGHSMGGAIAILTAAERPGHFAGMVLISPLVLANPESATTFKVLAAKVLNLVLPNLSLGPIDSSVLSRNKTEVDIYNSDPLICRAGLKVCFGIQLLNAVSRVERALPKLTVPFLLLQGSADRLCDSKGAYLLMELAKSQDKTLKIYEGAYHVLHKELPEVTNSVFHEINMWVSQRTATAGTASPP
Assay: 2-AG assay: MAGL inhibitory activity by hydrolysis of 2-arachidonoylglycerol to arachidonic acid, mass spectrometry
Assay type: biochemical
Conditions: 2-AG assay (values marked [b])
Method: Alternatively, compounds were profiled for MAGL inhibitory activity by determining the enzymatic activity by following the hydrolysis of the natural substrate 2-arachidonoylglycerol (2-AG) resulting in arachidonic acid, which can be followed by mass spectrometry. This assay is hereinafter abbreviated “2-AG assay”.
The 2-AG assay was carried out in 384 well assay plates (PP, Greiner Cat #784201) in a total volume of 20 μL. Compound dilutions were made in 100% DMSO (VWR Chemicals 23500.297) in a polypropylene plate in 3-fold dilution steps to give a final concentration range in the assay from 12.5 μM to […]. 0.25 μL compound dilutions (100% DMSO) were added to 9 μL MAGL in assay buffer (50 mM TRIS (GIBCO, 15567-027), 1 mM EDTA (Fluka, 03690-100 mL), 0.01% (v/v) Tween. After shaking, the plate was incubated for 15 min at RT. To start the reaction, 10 μL 2-arachidonoylglycerol in assay buffer was added. The final concentrations in the assay was […] and 8 μM 2-arachidonoylglyerol. After shaking and 30 min incubation at RT, the reaction was quenched by the addition of 40 μL of ACN containing 4 μM of d8-arachidonic acid. The amount of arachidonic acid was traced by an online SPE system (Agilent Rapidfire) coupled to a triple quadrupole mass spectrometer (Agilent 6460). A C18 SPE cartridge (G9205A) was used in an ACN/water liquid setup. The mass spectrometer was operated in negative electrospray mode following the mass transitions 303.1→259.1 for arachidonic acid and 311.1→267.0 for d8-arachidonic acid. The activity of the compounds was calculated based on the ratio of intensities [arachidonic acid/d8-arachidonic acid].

Compound: CC(C)(C)Cn1cc(-c2ccc(C(=O)N3CCN(c4nc5nc(Cl)ccc5o4)C[C@H]3CO)cc2)nn1 (stereo in doubt) [Example 289, [(2S)-4-(5-chlorooxazolo[4,5-b]pyridin-2-yl)-2-(hydroxymethyl)piperazin-1-yl]-[4-[1-(2,2-dimethylpropyl)triazol-4-yl]phenyl]methanone]
IC50: 63 nM

Compound: CC(C)(C)Cn1cc(-c2ccc(C(=O)N3CCN(c4nc5nc(Cl)ccc5o4)C[C@@H]3CO)cc2)nn1 (stereo in doubt) [Example 290, [(2R)-4-(5-chlorooxazolo[4,5-b]pyridin-2-yl)-2-(hydroxymethyl)piperazin-1-yl]-[4-[1-(2,2-dimethylpropyl)triazol-4-yl]phenyl]methanone]
IC50: 2070 nM

Compound: Cc1ccc2oc(N3CCN(C(=O)c4ccc(-c5nnc(CC(C)(C)C)n5C)cc4)CC3)nc2n1 [Example 74, [4-[5-(2,2-dimethylpropyl)-4-methyl-1,2,4-triazol-3-yl]phenyl]-[4-(5-methyloxazolo[4,5-b]pyridin-2-yl)piperazin-1-yl]methanone]
IC50: 327 nM

Compound: Cn1c(-c2ccc(C(=O)N3CCN(c4nc5nc(Cl)ccc5o4)CC3)cc2)nnc1C(C)(C)C [Example 76, [4-(5-tert-butyl-4-methyl-1,2,4-triazol-3-yl)phenyl]-[4-(5-chlorooxazolo[4,5-b]pyridin-2-yl)piperazin-1-yl]methanone]
IC50: 1310 nM

Compound: Cc1ccc2oc(N3CCN(C(=O)c4ccc(-c5nnc(C(C)(C)C)n5C)cc4)CC3)nc2n1 [Example 77, [4-(5-tert-butyl-4-methyl-1,2,4-triazol-3-yl)phenyl]-[4-(5-methyloxazolo[4,5-b]pyridin-2-yl)piperazin-1-yl]methanone]
IC50: 2320 nM

Compound: Cc1ccc2oc(N3CCN(C(=O)c4ccc(-c5nnc(C(C)(C)C)o5)c(C)c4)CC3)nc2n1 [Example 82, [4-(5-tert-butyl-1,3,4-oxadiazol-2-yl)-3-methyl-phenyl]-[4-(5-methyloxazolo[4,5-b]pyridin-2-yl)piperazin-1-yl]methanone]
IC50: 37 nM

Compound: Cc1ccc2oc(N3CCN(C(=O)c4ccc(-c5cn(C(C)(C)C)nn5)cc4)CC3)nc2n1 [Example 87, (4-(1-(tert-butyl)-1H-1,2,3-triazol-4-yl)phenyl)(4-(5-methyloxazolo[4,5-b]pyridin-2-yl)piperazin-1-yl)methanone]
IC50: 151 nM

Compound: CC(C)(C)n1cc(-c2ccc(C(=O)N3CCN(c4nc5nc(Cl)ccc5o4)CC3)cc2)nn1 [Example 88, (4-(1-(tert-butyl)-1H-1,2,3-triazol-4-yl)phenyl)(4-(5-chlorooxazolo[4,5-b]pyridin-2-yl)piperazin-1-yl)methanone]
IC50: 71 nM

Compound: Cc1ccc2oc(N3CCN(C(=O)c4ccc(-c5ncn(C(C)(C)C)n5)c(Cl)c4)CC3)nc2n1 [Example 89, (4-(1-(tert-butyl)-1H-1,2,4-triazol-3-yl)-3-chlorophenyl)(4-(5-methyloxazolo[4,5-b]pyridin-2-yl)piperazin-1-yl)methanone]
IC50: 25 nM

Compound: Cc1ccc2oc(N3CCN(C(=O)c4ccc(-c5cn(C67CC(C6)C7)nn5)cc4)CC3)nc2n1 [Example 94, (4-(1-(bicyclo[1.1.1]pentan-1-yl)-1H-1,2,3-triazol-4-yl)phenyl)(4-(5-methyloxazolo[4,5-b]pyridin-2-yl)piperazin-1-yl)methanone]
IC50: 88 nM

Compound: O=C(c1ccc(-c2cn(C34CC(C3)C4)nn2)cc1)N1CCN(c2nc3nc(Cl)ccc3o2)CC1 [Example 95, (4-(1-(bicyclo[1.1.1]pentan-1-yl)-1H-1,2,3-triazol-4-yl)phenyl)(4-(5-chlorooxazolo[4,5-b]pyridin-2-yl)piperazin-1-yl)methanone]
IC50: 42 nM

Now those with a lower IC50, led by results:

IC50: 24 nM
Compound: Cc1ccc2oc(N3CCN(C(=O)c4ccc(-c5noc(C(C)(C)C)n5)c(Cl)c4)CC3)nc2n1 [Example 79, [4-(5-tert-butyl-1,2,4-oxadiazol-3-yl)-3-chloro-phenyl]-[4-(5-methyloxazolo[4,5-b]pyridin-2-yl)piperazin-1-yl]methanone]

IC50: 23 nM
Compound: Cc1ccc2oc(N3CCN(C(=O)c4ccc(-c5ncn(C(C)(C)C)n5)c(C)c4)CC3)nc2n1 [Example 96, (4-(1-(tert-butyl)-1H-1,2,4-triazol-3-yl)-3-methylphenyl)(4-(5-methyloxazolo[4,5-b]pyridin-2-yl)piperazin-1-yl)methanone]

IC50: 21 nM
Compound: CC(C)(C)c1nc(-c2c(F)cc(C(=O)N3CCN(c4nc5nc(Cl)ccc5o4)CC3)cc2F)no1 [Example 80, [4-(5-tert-butyl-1,2,4-oxadiazol-3-yl)-3,5-difluoro-phenyl]-[4-(5-chlorooxazolo[4,5-b]pyridin-2-yl)piperazin-1-yl]methanone]

IC50: 19 nM
Compound: Cc1ccc2oc(N3CCN(C(=O)c4ccc(-c5cn(CC(C)(C)C)nn5)cc4)CC3)nc2n1 [Example 75, [4-[1-(2,2-dimethylpropyl)triazol-4-yl]phenyl]-[4-(5-methyloxazolo[4,5-b]pyridin-2-yl)piperazin-1-yl]methanone]

IC50: 16 nM
Compound: CC(C)(C)n1cnc(-c2ccc(C(=O)N3CCN(c4nc5nc(Cl)ccc5o4)CC3)cc2Cl)n1 [Example 90, (4-(1-(tert-butyl)-1H-1,2,4-triazol-3-yl)-3-chlorophenyl)(4-(5-chlorooxazolo[4,5-b]pyridin-2-yl)piperazin-1-yl)methanone]

IC50: 12 nM
Compound: Cc1cc(C(=O)N2CCN(c3nc4nc(Cl)ccc4o3)CC2)ccc1-c1ncn(C(C)(C)C)n1 [Example 97, (4-(1-(tert-butyl)-1H-1,2,4-triazol-3-yl)-3-methylphenyl)(4-(5-chlorooxazolo[4,5-b]pyridin-2-yl)piperazin-1-yl)methanone]

IC50: 11 nM
Compound: Cc1cc(C(=O)N2CCN(c3nc4nc(Cl)ccc4o3)CC2)ccc1-c1nnc(C(C)(C)C)o1 [Example 83, [4-(5-tert-butyl-1,3,4-oxadiazol-2-yl)-3-methyl-phenyl]-[4-(5-chlorooxazolo[4,5-b]pyridin-2-yl)piperazin-1-yl]methanone]

IC50: 10 nM
Compound: Cc1ccc2oc(N3CCN(C(=O)c4cc(F)c(-c5cnn(CC(C)(C)C)n5)c(F)c4)CC3)nc2n1 [Example 92, (3,5-difluoro-4-(2-neopentyl-2H-1,2,3-triazol-4-yl)phenyl)(4-(5-methyloxazolo[4,5-b]pyridin-2-yl)piperazin-1-yl)methanone]

IC50: 9 nM
Compound: CC(C)(C)c1nc(-c2ccc(C(=O)N3CCN(c4nc5nc(Cl)ccc5o4)CC3)cc2C(F)(F)F)no1 [Example 81, [4-(5-tert-butyl-1,2,4-oxadiazol-3-yl)-3-(trifluoromethyl)phenyl]-[4-(5-chlorooxazolo[4,5-b]pyridin-2-yl)piperazin-1-yl]methanone]

IC50: 7 nM
Compound: CC(C)(C)Cn1cc(-c2c(F)cc(C(=O)N3CCN(c4nc5nc(Cl)ccc5o4)CC3)cc2F)nn1 [Example 93, (4-(5-chlorooxazolo[4,5-b]pyridin-2-yl)piperazin-1-yl)(3,5-difluoro-4-(1-neopentyl-1H-1,2,3-triazol-4-yl)phenyl)methanone]

IC50: 5 nM
Compound: Cc1ccc2oc(N3CCN(C(=O)c4ccc(-c5cnn(CC(C)(C)C)n5)c(F)c4)CC3)nc2n1 [Example 85, (3-fluoro-4-(2-neopentyl-2H-1,2,3-triazol-4-yl)phenyl)(4-(5-methyloxazolo[4,5-b]pyridin-2-yl)piperazin-1-yl)methanone]

IC50: 4 nM
Compound: CC(C)(C)c1nc(-c2ccc(C(=O)N3CCN(c4nc5nc(Cl)ccc5o4)CC3)cc2Cl)no1 [Example 78, [4-(5-tert-butyl-1,2,4-oxadiazol-3-yl)-3-chloro-phenyl]-[4-(5-chlorooxazolo[4,5-b]pyridin-2-yl)piperazin-1-yl]methanone]

IC50: 3 nM
Compound: CC(C)(C)Cn1ncc(-c2c(F)cc(C(=O)N3CCN(c4nc5nc(Cl)ccc5o4)CC3)cc2F)n1 [Example 91, (4-(5-chlorooxazolo[4,5-b]pyridin-2-yl)piperazin-1-yl)(3,5-difluoro-4-(2-neopentyl-2H-1,2,3-triazol-4-yl)phenyl)methanone]

IC50: 2 nM
Compound: CC(C)(C)Cn1ncc(-c2ccc(C(=O)N3CCN(c4nc5nc(Cl)ccc5o4)CC3)cc2F)n1 [Example 84, (4-(5-chlorooxazolo[4,5-b]pyridin-2-yl)piperazin-1-yl)(3-fluoro-4-(2-neopentyl-2H-1,2,3-triazol-4-yl)phenyl)methanone]

IC50: 2 nM
Compound: CC(C)(C)Cn1cc(-c2ccc(C(=O)N3CCN(c4nc5nc(Cl)ccc5o4)CC3)cc2F)nn1 [Example 86, (4-(5-chlorooxazolo[4,5-b]pyridin-2-yl)piperazin-1-yl)(3-fluoro-4-(1-neopentyl-1H-1,2,3-triazol-4-yl)phenyl)methanone]
